Ends that are not written are not given here.
Tests used:
[1] = molecular target: T1, recombinant LZCC protein (dimerized FOXP3) (Mus musculus, UniProt Q99JB6); experiment: Chemical crosslinking (BS3 or DSS) of recombinant LZCC with SAH-FOXP3 peptides; format: biochemical; details: 2 hours room temperature, 1 mM BS3 or DSS
T1 construct: the LZCC portion of FOXP3 (FOXP3 S189-K276); made in house
T1 sequence (Q99JB6 189-276): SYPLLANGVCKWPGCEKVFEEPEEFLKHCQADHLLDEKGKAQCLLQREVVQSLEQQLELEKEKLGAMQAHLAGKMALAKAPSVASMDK
Description: FIG. 8A-B. Chemical Crosslinking. SAH-FOXP3 peptides incubated with recombinant LZCC protein for 2 hours at room temperature in 1×PBS. 1 mM of the chemical crosslinker BS3 or DSS was added to each tube for 30 mins at room temperature. Samples were denatured and then separated by electrophoresis on a NuPage SDS 10/a Bis-Tris gel following the manufacturer's protocol (Invitrogen). Protein was imaged after staining the gel with coomassie on the Odyssey Imager. […] In some cases, SAH peptide crosslinks with monomeric FOXP3 alone

DNA probe = experiment: EMSA control, peptide alone with DNA probe (non-specific binding); details: 50 μM peptide
Description: FIG. 9A-C. Electrophoretic mobility shift assays (EMSA). (A) SAHs block FOXP3 binding to cognate DNA; a comparison of stapled and unstapled peptides. EMSA with FOXP3ΔN incubated with increasing concentrations of different SAH-FOXP3 are shown. Labeled probe containing consensus sequence (A′GT25) for FOXP3 was incubated at room temperature for 15 mins with recombinant FOXP3ΔN and increasing concentrations of SAH peptide [3 μM to 25 μM]. The last lane in each set is 25 μM of peptide alone with DNA probe. […] IRDye700 labeled probe containing consensus sequence for NFAT was incubated at room temperature for 15 mins with 100 pmole recombinant NFAT-DBD and peptide or DMSO using the Odyssey Infrared EMSA kit per manufacturer's protocol (Li-Cor). Reactions were then separated by electrophoresis on a 10% TBE gel and imaged using an Odyssey Imager (Li-Cor).
To exclude non-specific binding to the negatively charged DNA probe, a liability of using charged peptides in EMSAs, SAH-FOXP3DDs were incubated with each probe at up to twice the highest concentration used. […] Next, SAH-FOXP3DDs were incubated with recombinant NFAT (NFAT DBDW400-W680) and the Il-2 reporter oligonucleotide ARRE2 element as a further test of specificity. SAH-FOXP3DDs were unable to inhibit NFAT:DNA binding, further validating on-target specificity of the peptides.

FOXP3-DNA binding = experiment: EMSA with FOXP3 reticulocyte lysate (IVTT) and IRDye700 DNA probe, unstapled peptides; format: biochemical; details: peptides 50-200 μM, A′A1A2 probe
Description: FIG. 5A-C. Unstapled FOXP3 peptides are able to alter FOXP3-DNA binding at high concentrations. Preparation of FOXP3 proteins through In Vitro Transcription and Translation (IVTT) reticulocyte lysate: T7 DNA vectors (1 μg/25 μL) were incubated at 30° C. for 1.5 hr in reticulocyte lysate with T7 polymerase, amino acids and RNAsin per the manufacturer's protocol (TnT Coupled Reticulocyte Lysate System, Promega). IRDye700 labeled probe containing consensus sequence (A′A1A2; a DNA sequence previously published to bind FOXP3) for FOXP3 was incubated at room temperature for 15 mins with 2 μL FOXP3 reticulocyte lysate, in the presence of peptides (50-200 μM) using the Odyssey Infrared EMSA kit per manufacturer's protocol (Li-Cor). Reactions were then separated by electrophoresis on a 10% TBE gel and imaged using an Odyssey Imager (Li-Cor).

FOXP3:NFAT1 = experiment: IL-2 promoter ARRE2 luciferase reporter, FOXP3 repression of NFAT1:AP1 transcription; format: cell-based, human; details: HEK cells
Description: FIG. 2A-E. Design, biochemical characterization, and functional testing of SAH-FOXP3NFATs. (A) Design strategy for SAHs targeting the FOXP3:NFAT1 dimerization interface. (B) CD showing that i(i+4) and i(i+7) stapled SAH-FOXP3NFATs and their point mutant controls are helical in solution. […] (C&D) Dose dependent inhibition of FOXP3-mediated NFAT repression with 2.5 ng (D) and 10 ng (E) FOXP3 DNA. Point mutant controls have no effect thus confirming specificity of action.
Experiments were conducted during development of embodiments herein to design stabilized α-helices of the FOXP3:NFAT1 interface (SAH-FOXP3NFAT). Using a similar approach as above, stapled peptides based on a FOXP3 α-helix, which is responsible for NFAT1 binding (FIG. 2A), were designed. Non-natural amino acids were inserted in either the i,i+4 (SAHFOXP3NFAT(i,i+4)) or i,i+7(SAHFOXP3NFAT(i,i+7)) positions. Hydrocarbon stapling of the FOXP3NFAT peptides and point mutants similarly stabilizes their helicity (FIG. 2B). The peptides were tested for inhibition of FOXP3:NFAT1 binding. Co-expression of increasing amounts of FOXP3 DNA with constitutively active NFAT1 dose dependently represses NFAT1: AP1 transcriptional activity at an IL-2 promoter ARRE2 luciferase reporter element in transfected human embryonic kidney (HEK) cells (FIG. 2C). […] Confirming specificity of action, neither point mutant control SAH had any effect (FIG. 2E). […] Possibilities include differences in cellular penetrance, binding efficiency, or intracellular trafficking between the two SAHs.

[2] = system: regulatory T cells (Tregs); experiment: In vitro Treg suppression assay (Tcon proliferation, flow cytometry); format: cell-based, mouse (C57BL/6 FOXP3IRES-GFP)
Tregs [3] = experiment: Flow cytometry of protein expression in treated Tregs; format: cell-based, mouse (C57BL/6 FOXP3IRES-GFP); details: dose titration
Description: (§1) FIG. 12A-B. SAH-FOXP3DD peptides are able to alter cellular expression (protein and mRNA) of FOXP3 target genes. Conventional T cells (CD4+ CD25−) and regulatory T cells (CD25+ GFP+) were isolated from CD4+ cells enriched from spleen and draining lymph nodes of FOXP3-IRES-GFP. Tregs were treated at 1000 cells per μL with peptides in OptiMem for 2 hours before being quenched with completed advanced DMEM and then stimulated with CD3/CD28 beads. Gene expression was determined using qRT-PCR 4 hours after stimulation. Membrane (live cell) or internal (fixed cell) expression of proteins was determined using flow cytometry 16 hrs after stimulation.
(§2) Tregs and Tcons were stimulated from C57BL/6 FOXP3IRES-GFP with IL-2 and CD3/CD28 microbeads for seven days and treated them with a dose titration of SAH-FOXP3DD10, or unstapled control, and measured membrane expression of CD127 (IL7Ra). Tregs and Tcons normally downregulate CD127 mRNA expression following seven days of stimulation.

Tregs [4] = experiment: Quantitative PCR of mRNA in treated Tregs; format: cell-based, mouse (C57BL/6 FOXP3IRES-GFP); details: naïve Tregs with IL-2 and CD3/CD28 microbeads
Description: as §1, §2

[5] = molecular target: T2, recombinant FOXP3 leucine zipper coiled-coiled (LZCC) domain (Mus musculus, UniProt Q99JB6); experiment: Fluorescence polarization assay, FITC-peptide binding to LZCC; details: 50 nM FITC-peptide, 1×PBS pH 8
T2 construct: the LZCC portion of FOXP3 (FOXP3 S189-K276); made in house
T2 sequence (Q99JB6 189-276): T1 sequence (Q99JB6 189-276)
Description: FIG. 7A-D. Fluorescence polarization assay to determine SAH-FOXP3 binding to recombinant FOXP3 leucine zipper coiled-coiled (LZCC) domain. (A) Serially diluted recombinant LZCC was incubated with 50 nM FITC-peptide in 1×PBS pH 8 for 5-10 mins and then fluorescent polarization was measured using a SpectraMax spectrometer. […] (B—C) Serially diluted recombinant LZCC (A) or FOXP3 ΔN (B) was incubated with 50 nM FITC-peptide in 1×PBS pH 8 for 5-10 mins followed by fluorescent polarization measurement using a SpectraMax spectrometer. (D) Shift of composite binding curves indicate increased affinity for the leucine zipper coiled-coiled (LZCC) domain and FOXP3ΔN.
A library of hydrocarbon stapled peptides were synthesized representing these templates (SAH-FOXP3DDs) that incorporated three different hydrocarbon staple positions along the solvent-exposed face so as to avoid disruption of critical contact points between ‘a’ and ‘d’ residues of the coiled-coil. Non-natural amino acids were inserted at positions i,i+7 so that the hydrocarbon staples face away from the dimerization interface (FIG. 1A). […] Both native and stapled FOXP3DD peptides were α-helical in solution at a wide range of temperatures (20-50° C.) (FIG. 1B). To achieve solubility of the unstapled constructs for CD evaluation, 20% acetonitrile:water solution was used. […]

F8KHCQADXLLDEKGRAQCLLQREMVQSLEQQLVLEKEKL [SAH7, Ac-/-Am; hFOXP3 (214-253); staple (1215, H222)Z]
amount of dimerized FOXP3 protein after crosslinking [1]: modest decrease

HLLDEKGRAQCLLQREMVQSLE8QLVLEKXKLSAMQAHLAG [SAH3, Ac-/-Am; hFOXP3 (222-262); staple (Q244, E251)C]
binding of peptide to DNA probe (DNA probe): minimal binding

KGRAQCLLQREMVQSLE8QLVLEKXKLSAMQAH [SAH-FOXP3DD4, Ac-/-Am; hFOXP3 (227-259); staple (Q244, E251)C]
binding of peptide to DNA probe (DNA probe): minimal binding

LLDEKGRAQCL8QREMVQXLEQQLVLEKEK [SAH9, Ac-/-Am; hFOXP3 (223-252); staple (L234, S241)B]
amount of dimerized FOXP3 protein after crosslinking [1]: modest decrease

LLDEKGRAQCLLQREMVQSLEQQLVLEKEK (LLDEKGRAQCLLQREMVQSLEQQLVLEKEK-NH2) [223-252, free N-term/-Am; hFOXP3 (223-252); unstapled; B4 has the same range]
dissociation of FOXP3 from DNA (EMSA) (FOXP3-DNA binding): dissociate FOXP3 from DNA

QRTXNEIXHWFTRNFAFF [SAH-FOXP3NFAT(i,i+4), β-Ala/Ac; i,i+4 stapled FOXP3/NFAT peptide]
inhibition of FOXP3-mediated repression of NFAT1:AP1 luciferase activity (FOXP3:NFAT1; 2.5 ng FOXP3 DNA (low dose)): inhibited this FOXP3-mediated repression | inhibition of FOXP3-mediated repression of NFAT1:AP1 luciferase activity (FOXP3:NFAT1; 2.5 ng FOXP3 DNA (low dose), listed as FOXP3NFAT(i,i+4)): fully inhibited | inhibition of FOXP3-mediated repression of NFAT1:AP1 luciferase activity (FOXP3:NFAT1; 10 ng FOXP3 DNA (excess)): inhibited this FOXP3-mediated repression | inhibition of FOXP3-mediated repression of NFAT1:AP1 luciferase activity (FOXP3:NFAT1; 10 ng FOXP3 DNA (excess), listed as FOXP3NFAT(i,i+4)): less able to inhibit

QRTXNEIYHWXTRNFAFF [SAH-FOXP3NFAT(i,i+7), β-Ala/Ac; i,i+7 stapled FOXP3/NFAT peptide]
inhibition of FOXP3-mediated repression of NFAT1:AP1 luciferase activity (FOXP3:NFAT1; 2.5 ng FOXP3 DNA (low dose)): inhibited this FOXP3-mediated repression | inhibition of FOXP3-mediated repression of NFAT1:AP1 luciferase activity (FOXP3:NFAT1; 2.5 ng FOXP3 DNA (low dose), listed as FOXP3NFAT(I,i+7)): dose-responsively inhibited | inhibition of FOXP3-mediated repression of NFAT1:AP1 luciferase activity (FOXP3:NFAT1; 10 ng FOXP3 DNA (excess)): inhibited this FOXP3-mediated repression | inhibition of FOXP3-mediated repression of NFAT1:AP1 luciferase activity (FOXP3:NFAT1; 10 ng FOXP3 DNA (excess), listed as FOXP3NFAT(I,i+7)): dose-responsively inhibited

RAQCLLQREMVQSLE8QLVLEKXKLSAMQAH [SAH-FOXP3DD10, Ac-/-Am; hFOXP3 (229-259); staple (Q244, E251)C]
degree of Treg inhibition ([2]; in vitro expanded Tregs): lower, but still present | ability of treated Tregs to inhibit Tcon proliferation ([2]; naïve Tregs pretreated for 2 hours): unable to inhibit the proliferation | expression of CD44 (Tregs [3]; Tregs stimulated seven days): dose dependent decrease | expression of CD69 (Tregs [3]; Tregs stimulated seven days): dose dependent decrease | membrane expression of CD127 (IL7Ra) (Tregs [3]; Tregs stimulated with IL-2 and CD3/CD28 microbeads for seven days): dose dependent increase | FOXP3 mRNA expression (Tregs [4]): correlative increase | IL-2 mRNA expression (Tregs [4]): correlative increase | binding of peptide to DNA probe (DNA probe): minimal binding

RAQCLLQREMVQSLEQQLVLEKEKLSAMQAH (Ac-RAQCLLQREMVQSLEQQLVLEKEKLSAMQAH-NH2) [229-259, Ac-/-Am; hFOXP3 (229-259); unstapled]
dissociation of FOXP3 from DNA (EMSA) (FOXP3-DNA binding): dissociate FOXP3 from DNA

SGSGSRAQCLLQREMVQSLEQQLVLEKEK (Ac-SGSGSRAQCLLQREMVQSLEQQLVLEKEK-NH2) [B2V3, Ac-/-Am; SGSGS hFOXP3 (229-252); unstapled native peptide]
binding to recombinant LZCC, in words [5]: much lower affinity

SGSRAQCLLQREMVQSLEQQLVLEKEK (Ac-SGSRAQCLLQREMVQSLEQQLVLEKEK-NH2) [B2V2, Ac-/-Am; SGS hFOXP3 (229-252); unstapled native peptide]
binding to recombinant LZCC, in words [5]: much lower affinity

From patent US12344643B2, “Compositions and methods for inhibition of FOXP3” (The University of Chicago, priority 2016, dated 2025)
